In the supplement of paper PMC10627819:

Tests used:
Test in all cases: fitness (endpoint OD595 vs no drug) (fraction); higher = more growth
[1] = tested on: S. pneumoniae D39V
In short: (§1)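 Plates with 384 wells were inoculated at OD595 0.01 using 30 µl of TSB, LB Lennox or CY, or 55 µl for S. pneumoniae. Incubation was at 37 °C, with OD595 measured every 30 min for 14 h. Fitness is the stationary-phase transition optical density over the robust mean of no-drug control wells, after first-reading background subtraction; it is capped at 1.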

[2] = tested on: S. aureus Newman
In short: as §1

[3] = tested on: S. aureus DSM 20231; conditions: main component drawn
In short: as §1

CO[C@@]12[C@H](COC(N)=O)C3=C(C(=O)C(C)=C(N)C3=O)N1C[C@@H]1N[C@@H]12 [Mitomycin C] + CCC(C)C1C(=O)NC(=C)C(=O)NC(C(=O)NC(CSCC(C(=O)N1)NC(=O)/C(=C/C)/NC(=O)C(C(C)CC)N)C(=O)NC2C(SCC(NC(=O)CNC(=O)C3CCCN3C2=O)C(=O)NC(CCCCN)C(=O)NC4C(SCC(NC(=O)CNC(=O)C(NC(=O)C(NC(=O)C(NC(=O)CNC4=O)C)CC(C)C)CCSC)C(=O)NC(CC(=O)N)C(=O)NC(CCSC)C(=O)NC(CCCCN)C(=O)NC5C(SCC6C(=O)NC(C(=O)NC(CSC(C(C(=O)N6)NC(=O)C(NC5=O)C)C)C(=O)NC(CO)C(=O)NC(C(C)CC)C(=O)NC(CC7=CN=CN7)C(=O)NC(C(C)C)C(=O)NC(=C)C(=O)NC(CCCCN)C(=O)O)CC8=CN=CN8)C)C)C)CC(C)C [Nisin]
fitness, [1], main component drawn
Conditions | first compound 0.001075 µg/mL | first compound 0.002 µg/mL | first compound 0.00215 µg/mL | first compound 0.004 µg/mL | first compound 0.0043 µg/mL | first compound 0.008 µg/mL
partner 0.4275 µg/mL | – | 0.982 | – | 0.838 | – | 0.636
partner 0.855 µg/mL | – | 0.943 | – | 0.844 | – | 0.538
partner 1.6 µg/mL | 0.0489 | – | 0.0715 | – | 0.0313 | –
partner 1.71 µg/mL | – | 0.0782 | – | 0.0797 | – | 0.0351
partner 3.2 µg/mL | 0.0397 | – | 0.038 | – | 0.0122 | –
partner 6.4 µg/mL | 0.0247 | – | 0.0066 | – | 0.0194 | –

CO[C@@]12[C@H](COC(N)=O)C3=C(C(=O)C(C)=C(N)C3=O)N1C[C@@H]1N[C@@H]12 [Mitomycin C] + CN(C)c1cc(NC(=O)CNC(C)(C)C)c(O)c2c1C[C@H]1C[C@H]3[C@H](N(C)C)C(O)=C(C(N)=O)C(=O)[C@@]3(O)C(O)=C1C2=O [Tigecycline]
fitness
Conditions | first compound 0.001075 µg/mL | first compound 0.002 µg/mL | first compound 0.00215 µg/mL | first compound 0.004 µg/mL | first compound 0.0043 µg/mL | first compound 0.008 µg/mL | first compound 0.0156 µg/mL | first compound 0.0312 µg/mL | first compound 0.0625 µg/mL
[1], partner 0.65 µg/mL | 0.89 | 0.878 | 0.848 | 0.804 | 0.819 | 0.688 | – | – | –
[1], partner 1.3 µg/mL | 0.877 | 0.888 | 0.859 | 0.764 | 0.822 | 0.625 | – | – | –
[1], partner 2.6 µg/mL | 0.893 | 0.816 | 0.844 | 0.806 | 0.783 | 0.627 | – | – | –
[2], partner 0.039 µg/mL | – | – | – | – | – | – | 0.7 | 0.661 | 0.551
[2], partner 0.078 µg/mL | – | – | – | – | – | – | 0.725 | 0.655 | 0.558
[2], partner 0.156 µg/mL | – | – | – | – | – | – | 0.746 | 0.679 | 0.505

CO[C@@]12[C@H](COC(N)=O)C3=C(C(=O)C(C)=C(N)C3=O)N1C[C@@H]1N[C@@H]12 [Mitomycin C] + CCCCCCCCCC(=O)N[C@@H]1[C@H]([C@@H]([C@H](O[C@H]1OC2=C3C=C4C=C2OC5=C(C=C(C=C5)[C@H]([C@H]6C(=O)N[C@@H](C7=C(C(=CC(=C7)O)OC8[C@H]([C@H]([C@@H]([C@H](O8)CO)O)O)O)C9=C(C=CC(=C9)[C@H](C(=O)N6)NC(=O)[C@@H]4NC(=O)[C@@H]1C2=CC(=CC(=C2)OC2=C(C=CC(=C2)[C@H](C(=O)N[C@H](CC2=CC(=C(O3)C=C2)Cl)C(=O)N1)N)O)O)O)C(=O)O)O[C@H]1[C@@H]([C@H]([C@@H]([C@H](O1)CO)O)O)NC(=O)C)Cl)CO)O)O [Teicoplanin]
fitness, [2], main component drawn
Conditions | first compound 0.0156 µg/mL | first compound 0.0312 µg/mL | first compound 0.0625 µg/mL
partner 0.1562 µg/mL | 0.741 | 0.655 | 0.429
partner 0.3125 µg/mL | 0.753 | 0.582 | 0.296
partner 0.625 µg/mL | 0.568 | 0.417 | 0.138

fitness, [2], one replicate, main component drawn
Conditions | first compound 0.0156 µg/mL | first compound 0.0312 µg/mL | first compound 0.0625 µg/mL
partner 0.62 µg/mL | 0.603 | 0.482 | 0.141
partner 1.24 µg/mL | 0.482 | 0.322 | 0.02
partner 2.48 µg/mL | 0.0779 | 0.119 | 0.0423

fitness, [3]
Conditions | first compound 0.0156 µg/mL | first compound 0.0312 µg/mL | first compound 0.0625 µg/mL
partner 0.1562 µg/mL | 0.813 | 0.757 | 0.513
partner 0.3125 µg/mL | 0.855 | 0.81 | 0.418
partner 0.625 µg/mL | 0.902 | 0.814 | 0.255

CO[C@@]12[C@H](COC(N)=O)C3=C(C(=O)C(C)=C(N)C3=O)N1C[C@@H]1N[C@@H]12 [Mitomycin C] + CN[C@@H]1[C@H](O[C@H]2[C@H](O[C@H]3[C@H](O)[C@@H](O)[C@H](N=C(N)N)[C@@H](O)[C@@H]3N=C(N)N)O[C@@H](C)[C@]2(O)C=O)O[C@@H](CO)[C@H](O)[C@H]1O [Streptomycin]
fitness
Conditions | partner 1 µg/mL | partner 2 µg/mL | partner 4 µg/mL | partner 8 µg/mL
[1], first compound 0.001075 µg/mL | – | 0.883 | 0.913 | 0.939
[1], first compound 0.002 µg/mL | – | – | 0.857 | 0.802
[1], first compound 0.00215 µg/mL | – | 0.838 | 0.827 | 0.834
[1], first compound 0.004 µg/mL | – | – | 0.712 | 0.668
[1], first compound 0.0043 µg/mL | – | 0.701 | 0.741 | 0.717
[1], first compound 0.008 µg/mL | – | – | 0.54 | 0.56
[2], first compound 0.0156 µg/mL | 0.727 | 0.683 | – | –
[2], first compound 0.0312 µg/mL | 0.666 | 0.677 | 0.523 | –
[2], first compound 0.0625 µg/mL | 0.473 | 0.402 | 0.272 | –

fitness, [1], one replicate
Conditions | first compound 0.002 µg/mL | first compound 0.004 µg/mL | first compound 0.008 µg/mL
partner 2 µg/mL | 0.857 | 0.749 | 0.666
partner 16 µg/mL | 0.711 | 0.544 | 0.304
